# Assay results taken from PubChem BioAssay (NCI).
#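 Dose response: 5 concentrations. Exposure: 48 h. Format: 96-well plates. Endpoint: linear interpolation; highest concentration if not reached. Abbreviation: GI50, concentration required for 50% inhibition of growth. Definition used: TGI = concentration required for complete inhibition of growth.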
# How the values were obtained:
# Assay in all cases: NCI-60 cell line screen, 48 h
# [1] = system: LOX IMVI melanoma
# [2] = system: T-47D breast
# [3] = system: HOP-92 NSCLC
# [4] = system: SNB-75 CNS
# [5] = system: HT29 colon
# [6] = system: HCC-2998 colon
# [7] = system: OVCAR-3 ovarian
# [8] = system: ACHN renal
# [9] = system: SF-539 CNS
# [10] = system: SR leukemia
# [11] = system: EKVX NSCLC
# [12] = system: NCI-H460 lung
# [13] = system: NCI-H226 lung
# [14] = system: SF-268 CNS
# [15] = system: KM12 colon
# [16] = system: TK-10 renal
# [17] = system: CAKI-1 renal
# [18] = system: HOP-62 NSCLC
# [19] = system: COLO 205 colon
# [20] = system: OVCAR-5 ovarian
# [21] = system: MDA-MB-231 breast
# [22] = system: HL-60(TB) leukemia
# [23] = system: HCT-15 colon
# [24] = system: SK-OV-3 ovarian
# [25] = system: UO-31 renal
# [26] = system: OVCAR-4 ovarian
# [27] = system: U251 CNS
# [28] = system: NCI-H522 lung
# [29] = system: SNB-19 CNS
# [30] = system: DU-145 prostate
# [31] = system: SN12C renal
# [32] = system: HS 578T breast
# [33] = system: RXF 393 renal
# [34] = system: PC-3 prostate
# [35] = system: SK-MEL-28 melanoma
# [36] = system: SK-MEL-2 melanoma
# [37] = system: UACC-62 melanoma
# [38] = system: UACC-257 melanoma
# [39] = system: IGROV1 ovarian
# [40] = system: MALME-3M melanoma
# [41] = system: A549 NSCLC
# [42] = system: OVCAR-8 ovarian
# [43] = system: SW-620 colon
# [44] = system: MDA-MB-435
# [45] = system: 786-0 renal
# [46] = system: BT-549 breast
# [47] = system: SF-295 CNS
# [48] = system: RPMI-8226 leukemia
# [49] = system: MCF7 breast
# [50] = system: SK-MEL-5 melanoma
# [51] = system: NCI/ADR-RES ovarian
# [52] = system: A498 renal
# [53] = system: NCI-H23 lung
# [54] = system: CCRF-CEM leukemia
# [55] = system: M14 melanoma
# [56] = system: K-562 leukemia
# [57] = system: MOLT-4 leukemia
# [58] = system: HCT-116 colon
compound,measurement,setting,value
CCCCn1c(=O)c(/C=C/C(=O)/C=C/c2cc3ccccc3n(CCCC)c2=O)cc2ccccc21,GI50,[1],1.24 µM
same,TGI,[1],2.7 µM
same,GI50,[2],2.28 µM
same,TGI,[2],6.33 µM
same,GI50,[3],1.96 µM
same,TGI,[3],4.12 µM
same,GI50,[4],2.8 µM
same,TGI,[4],8.12 µM
same,GI50,[5],0.316 µM
same,TGI,[5],0.922 µM
same,GI50,[6],1.01 µM
same,TGI,[6],2.26 µM
same,GI50,[7],1.21 µM
same,TGI,[7],2.47 µM
same,GI50,[8],1.7 µM
same,TGI,[8],3.07 µM
same,GI50,[9],1.47 µM
same,TGI,[9],3.57 µM
same,GI50,[10],0.315 µM
same,TGI,[10],> 100 µM
same,GI50,[11],1.88 µM
same,TGI,[11],4.42 µM
same,GI50,[12],1.8 µM
same,TGI,[12],3.49 µM
same,GI50,[13],2.51 µM
same,TGI,[13],6 µM
same,GI50,[14],1.98 µM
same,TGI,[14],5.17 µM
same,GI50,[15],0.678 µM
same,TGI,[15],2.2 µM
same,GI50,[16],1.78 µM
same,TGI,[16],3.21 µM
same,GI50,[17],1.87 µM
same,TGI,[17],3.27 µM
same,GI50,[18],2.27 µM
same,TGI,[18],4.08 µM
same,GI50,[19],1.41 µM
same,TGI,[19],3.16 µM
same,GI50,[20],1.96 µM
same,TGI,[20],3.76 µM
same,GI50,[21],1.84 µM
same,TGI,[21],3.37 µM
same,GI50,[22],1.71 µM
same,TGI,[22],6.63 µM
same,GI50,[23],1.29 µM
same,TGI,[23],2.87 µM
same,GI50,[24],3.59 µM
same,TGI,[24],9.35 µM
same,GI50,[25],1.53 µM
same,TGI,[25],3.21 µM
same,GI50,[26],2.78 µM
same,TGI,[26],9.12 µM
same,GI50,[27],1.03 µM
same,TGI,[27],2.24 µM
same,GI50,[28],1.86 µM
same,TGI,[28],4.07 µM
same,GI50,[29],1.63 µM
same,TGI,[29],3.24 µM
same,GI50,[30],1.47 µM
same,TGI,[30],2.78 µM
same,GI50,[31],2.21 µM
same,TGI,[31],5.2 µM
same,GI50,[32],3.01 µM
same,TGI,[32],23.7 µM
same,GI50,[33],1.8 µM
same,TGI,[33],3.32 µM
same,GI50,[34],1.79 µM
same,TGI,[34],3.86 µM
same,GI50,[35],1.81 µM
same,TGI,[35],3.48 µM
same,GI50,[36],2.09 µM
same,TGI,[36],5.7 µM
same,GI50,[37],1.61 µM
same,TGI,[37],3.06 µM
same,GI50,[38],1.61 µM
same,TGI,[38],3 µM
same,GI50,[39],1.46 µM
same,TGI,[39],3.42 µM
same,GI50,[40],2.29 µM
same,TGI,[40],5.33 µM
same,GI50,[41],1.56 µM
same,TGI,[41],3.17 µM
same,GI50,[42],1.5 µM
same,TGI,[42],4.12 µM
same,GI50,[43],0.859 µM
same,TGI,[43],2.84 µM
same,GI50,[44],0.206 µM
same,TGI,[44],0.478 µM
same,GI50,[45],1.35 µM
same,TGI,[45],3.08 µM
same,GI50,[46],0.702 µM
same,TGI,[46],2.2 µM
same,GI50,[47],1.84 µM
same,TGI,[47],4.24 µM
same,GI50,[48],0.317 µM
same,TGI,[48],0.931 µM
same,GI50,[49],0.306 µM
same,TGI,[49],1.84 µM
same,GI50,[50],1.77 µM
same,TGI,[50],3.28 µM
same,GI50,[51],3.01 µM
same,TGI,[51],13.5 µM
CC1(C)CCC[C@]2(C)c3ccccc3C(=O)CC12 (stereo partly specified),GI50,[1],38.4 µM
same,TGI,[1],> 100 µM
same,GI50,[2],53.5 µM
same,TGI,[2],> 100 µM
same,GI50,[3],60.8 µM
same,TGI,[3],> 100 µM
same,GI50,[52],26 µM
same,TGI,[52],71.4 µM
same,GI50,[4],34.6 µM
same,TGI,[4],> 100 µM
same,GI50,[5],43 µM
same,TGI,[5],> 100 µM
same,GI50,[6],20.8 µM
same,TGI,[6],81.4 µM
same,GI50,[7],41.2 µM
same,TGI,[7],> 100 µM
same,GI50,[8],67.4 µM
same,TGI,[8],> 100 µM
same,GI50,[9],27.1 µM
same,TGI,[9],75.7 µM
same,GI50,[53],39.4 µM
same,TGI,[53],> 100 µM
same,GI50,[54],31.7 µM
same,TGI,[54],> 100 µM
same,GI50,[11],42.9 µM
same,TGI,[11],> 100 µM
same,GI50,[55],38.6 µM
same,TGI,[55],> 100 µM
same,GI50,[12],34.9 µM
same,TGI,[12],> 100 µM
same,GI50,[13],22.9 µM
same,TGI,[13],> 100 µM
same,GI50,[14],34.3 µM
same,TGI,[14],> 100 µM
same,GI50,[15],23.8 µM
same,TGI,[15],> 100 µM
same,GI50,[56],41.4 µM
same,TGI,[56],> 100 µM
same,GI50,[16],69 µM
same,TGI,[16],> 100 µM
same,GI50,[17],83.1 µM
same,TGI,[17],> 100 µM
same,GI50,[18],> 100 µM
same,TGI,[18],> 100 µM
same,GI50,[19],27.4 µM
same,TGI,[19],> 100 µM
same,GI50,[20],> 100 µM
same,TGI,[20],> 100 µM
same,GI50,[21],30.8 µM
same,TGI,[21],> 100 µM
same,GI50,[22],40.5 µM
same,TGI,[22],> 100 µM
same,GI50,[23],24.9 µM
same,TGI,[23],> 100 µM
same,GI50,[24],> 100 µM
same,TGI,[24],> 100 µM
same,GI50,[57],75.8 µM
same,TGI,[57],> 100 µM
same,GI50,[25],53.1 µM
same,TGI,[25],> 100 µM
same,GI50,[26],> 100 µM
same,TGI,[26],> 100 µM
same,GI50,[27],42.3 µM
same,TGI,[27],> 100 µM
same,GI50,[28],27.7 µM
same,TGI,[28],76.1 µM
same,GI50,[29],49.6 µM
same,TGI,[29],> 100 µM
same,GI50,[30],65.7 µM
same,TGI,[30],> 100 µM
same,GI50,[31],44.9 µM
same,TGI,[31],> 100 µM
same,GI50,[32],23.2 µM
same,TGI,[32],95.3 µM
same,GI50,[33],82.1 µM
same,TGI,[33],> 100 µM
same,GI50,[34],42 µM
same,TGI,[34],> 100 µM
same,GI50,[35],64.6 µM
same,TGI,[35],> 100 µM
same,GI50,[36],22 µM
same,TGI,[36],61.3 µM
same,GI50,[37],18.2 µM
same,TGI,[37],> 100 µM
same,GI50,[38],32.5 µM
same,TGI,[38],> 100 µM
same,GI50,[58],35 µM
same,TGI,[58],> 100 µM
same,GI50,[39],45.3 µM
same,TGI,[39],> 100 µM
same,GI50,[40],29 µM
same,TGI,[40],> 100 µM
same,GI50,[41],54.1 µM
same,TGI,[41],> 100 µM
same,GI50,[42],32.1 µM
same,TGI,[42],> 100 µM
same,GI50,[43],31 µM
same,TGI,[43],> 100 µM
same,GI50,[44],22.9 µM
same,TGI,[44],> 100 µM
same,GI50,[45],64.9 µM
same,TGI,[45],> 100 µM
same,GI50,[46],39.4 µM
same,TGI,[46],> 100 µM
same,GI50,[47],40.7 µM
same,TGI,[47],> 100 µM
same,GI50,[48],29.7 µM
same,TGI,[48],> 100 µM
same,GI50,[49],38.2 µM
same,TGI,[49],> 100 µM
same,GI50,[50],18 µM
same,TGI,[50],46.4 µM
same,GI50,[51],20.3 µM
same,TGI,[51],91.1 µM
